Test results published in PubChem BioAssay (NCI).
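48-hour exposure; five concentrations; linearly interpolated endpoints. GI50 = concentration required for 50% inhibition of growth. The concentration for full growth arrest is given as TGI.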

Experiments:
Test in all cases: DTP human tumour cell line panel, 48 h
[1] = system: EKVX NSCLC
[2] = system: UO-31 renal
[3] = system: HOP-62 NSCLC
[4] = system: ACHN renal
[5] = system: 786-0 renal
[6] = system: HL-60(TB) leukemia
[7] = system: NCI/ADR-RES ovarian
[8] = system: CAKI-1 renal
[9] = system: TK-10 renal
[10] = system: MCF7 breast

Compound: CC(C)[C@H]1CC[C@H]2[C@@H](CC[C@H]3[C@](C)(CN)CCC[C@]23C)C1
- GI50 [1]: 4.11 µM
- TGI [1]: 17 µM
- GI50 [2]: 1.76 µM
- TGI [2]: 4.21 µM
- GI50 [3]: 1.89 µM
- TGI [3]: 3.48 µM
- GI50 [4]: 2.42 µM
- TGI [4]: 6.44 µM
- GI50 [5]: 1.82 µM
- TGI [5]: 3.24 µM
- GI50 [6]: 1.8 µM
- TGI [6]: 4.23 µM
- GI50 [7]: 2.08 µM
- TGI [7]: 3.93 µM
- GI50 [8]: 1.71 µM
- TGI [8]: 4.2 µM
- GI50 [9]: 2.19 µM
- TGI [9]: 7.9 µM
- GI50 [10]: 1.51 µM
- TGI [10]: 2.85 µM

Compound: CCOc1ccccc1NC(=O)c1cc2ccccc2cc1O
- GI50 [1]: 2.67 µM
- TGI [1]: 11.3 µM
- GI50 [2]: 2.81 µM
- TGI [2]: 12.5 µM
- GI50 [3]: 3.32 µM
- TGI [3]: 16.7 µM
- GI50 [4]: 2.96 µM
- TGI [4]: 10.3 µM
- GI50 [5]: 3.34 µM
- TGI [5]: 9.13 µM
- GI50 [6]: 2.31 µM
- TGI [6]: 5.47 µM
- GI50 [7]: 3.13 µM
- TGI [7]: 14.2 µM
- GI50 [8]: 3.45 µM
- TGI [8]: 12.6 µM
- GI50 [9]: 4.08 µM
- TGI [9]: 10.3 µM
- GI50 [10]: 2.49 µM
- TGI [10]: 13.1 µM

Compound: N=C(N)c1ccc(OCCOCCOc2ccc(C(=N)N)cc2)cc1
- GI50 [1]: > 100 µM
- TGI [1]: > 100 µM
- GI50 [2]: 71.5 µM
- TGI [2]: > 100 µM
- GI50 [3]: > 100 µM
- TGI [3]: > 100 µM
- GI50 [4]: > 100 µM
- TGI [4]: > 100 µM
- GI50 [5]: > 100 µM
- TGI [5]: > 100 µM
- GI50 [6]: > 100 µM
- TGI [6]: > 100 µM
- GI50 [7]: > 100 µM
- TGI [7]: > 100 µM
- GI50 [8]: > 100 µM
- TGI [8]: > 100 µM
- GI50 [9]: 39.2 µM
- TGI [9]: > 100 µM
- GI50 [10]: 89.1 µM
- TGI [10]: > 100 µM

Compound: C/C=C/C/C=C/CCC(=O)[C@H]1O[C@H]1C(N)=O
- GI50 [1]: 14.1 µM
- TGI [1]: 28.9 µM
- GI50 [2]: 9.21 µM
- TGI [2]: 22.9 µM
- GI50 [3]: 13 µM
- TGI [3]: 28.2 µM
- TGI [4]: 26.9 µM
- GI50 [5]: 14.8 µM
- TGI [5]: 36.1 µM
- GI50 [6]: 5.19 µM
- TGI [6]: 25.2 µM
- TGI [7]: > 100 µM
- GI50 [8]: 13.4 µM
- TGI [8]: 36.5 µM
- GI50 [9]: 16.5 µM
- TGI [9]: 30.5 µM
- GI50 [10]: 12.6 µM
- TGI [10]: 26.1 µM

Compound: CCOC(=O)/C(=N\OC)C(O)C(F)(F)F (configuration not stated)
- TGI [1]: > 100 µM
- TGI [2]: > 100 µM
- TGI [3]: > 100 µM
- TGI [4]: > 100 µM
- TGI [5]: > 100 µM
- TGI [6]: > 100 µM
- TGI [7]: > 100 µM
- TGI [8]: > 100 µM
- TGI [9]: > 100 µM
- TGI [10]: > 100 µM

Compound: COc1ccc(-n2cc(-c3cc(OC)c(OC)c(OC)c3)nc2SCc2ccccc2)cc1
- GI50 [1]: 11.6 µM
- TGI [1]: > 100 µM
- GI50 [2]: 28 µM
- TGI [2]: > 100 µM
- GI50 [3]: 78 µM
- TGI [3]: > 100 µM
- GI50 [4]: 78.8 µM
- TGI [4]: > 100 µM
- GI50 [5]: > 100 µM
- TGI [5]: > 100 µM
- GI50 [6]: 10 µM
- TGI [6]: > 100 µM
- GI50 [7]: 26.8 µM
- TGI [7]: > 100 µM
- GI50 [8]: > 100 µM
- TGI [8]: > 100 µM
- GI50 [9]: > 100 µM
- TGI [9]: > 100 µM
- GI50 [10]: 15.4 µM
- TGI [10]: > 100 µM

Compound: Cc1cc(NCCCNc2ccnc3cc(Cl)ccc23)nc(N2CCN(C)CC2)n1
- GI50 [2]: 4.05 µM
- TGI [2]: 24 µM
- GI50 [3]: 4.79 µM
- TGI [3]: 21 µM
- GI50 [4]: 3.71 µM
- TGI [4]: 21 µM
- GI50 [5]: 14.7 µM
- TGI [5]: 38.3 µM
- GI50 [6]: 2.99 µM
- TGI [6]: 9.06 µM
- GI50 [7]: 17.5 µM
- TGI [7]: 61.7 µM
- GI50 [8]: 3.12 µM
- TGI [8]: 11.2 µM
- GI50 [9]: 6.51 µM
- TGI [9]: 29.9 µM
- GI50 [10]: 2.77 µM
- TGI [10]: 28.4 µM

Compound: c1ccc2c(c1)sc1c3cnccc3ccc21
- TGI [1]: > 100 µM
- TGI [2]: > 100 µM
- TGI [3]: > 100 µM
- TGI [4]: > 100 µM
- TGI [5]: > 100 µM
- TGI [6]: > 100 µM
- TGI [7]: > 100 µM
- TGI [8]: > 100 µM
- TGI [9]: > 100 µM
- TGI [10]: > 100 µM

Compound: Cn1ccnc1C(=O)/C=C/c1ccc(C(=O)Nc2ccc(S(F)(F)(F)(F)F)cc2)cc1
- GI50 [1]: 0.953 µM
- TGI [1]: > 14.3 µM
- GI50 [2]: 2.22 µM
- TGI [2]: > 14.3 µM
- GI50 [3]: 4.05 µM
- TGI [3]: > 14.3 µM
- GI50 [4]: 5.12 µM
- TGI [4]: > 14.3 µM
- GI50 [5]: 3.86 µM
- TGI [5]: > 14.3 µM
- GI50 [6]: 0.945 µM
- TGI [6]: 5.49 µM
- GI50 [7]: 1.52 µM
- TGI [7]: > 14.3 µM
- GI50 [8]: 2.1 µM
- TGI [8]: > 14.3 µM
- GI50 [9]: 4 µM
- TGI [9]: > 14.3 µM
- GI50 [10]: 0.481 µM
- TGI [10]: > 14.3 µM

Compound: CC(=O)N1N=C(c2ccc(Nc3nc(Nc4ccc(Cl)cc4)nc(Nc4ccc(Cl)cc4)n3)cc2)CC1c1ccc([N+](=O)[O-])cc1 (configuration not stated)
- GI50 [1]: 4.22 µM
- TGI [1]: > 40.1 µM
- GI50 [2]: 4.29 µM
- TGI [2]: > 100 µM
- GI50 [3]: 13.5 µM
- TGI [3]: 47.4 µM
- GI50 [4]: 5.49 µM
- TGI [4]: > 100 µM
- GI50 [5]: 3.8 µM
- TGI [5]: 26.3 µM
- GI50 [6]: 6.15 µM
- TGI [6]: 24.4 µM
- GI50 [7]: 5.41 µM
- TGI [7]: > 70.4 µM
- GI50 [8]: 6.1 µM
- TGI [8]: 32.5 µM
- GI50 [9]: 12.2 µM
- TGI [9]: > 75.3 µM
- GI50 [10]: 1.71 µM
- TGI [10]: 10.4 µM

Compound: CCOc1ccc(-c2cnnn2-c2nonc2-n2cccc2)cc1
- GI50 [1]: 0.569 µM
- TGI [1]: > 100 µM
- GI50 [2]: 0.376 µM
- TGI [2]: > 88.8 µM
- GI50 [3]: 0.421 µM
- TGI [3]: > 100 µM
- GI50 [4]: 0.689 µM
- TGI [4]: > 100 µM
- GI50 [5]: 0.416 µM
- TGI [5]: > 100 µM
- GI50 [6]: 0.309 µM
- TGI [6]: 13.4 µM
- GI50 [7]: 0.139 µM
- TGI [7]: > 38.1 µM
- GI50 [8]: 0.352 µM
- TGI [8]: > 100 µM
- GI50 [9]: 0.597 µM
- TGI [9]: > 100 µM
- GI50 [10]: 0.283 µM
- TGI [10]: > 100 µM

Compound: CCOC(=O)c1sc2ncn(Cc3cccc(Br)c3)c(=O)c2c1C
- GI50 [1]: 25 µM
- TGI [1]: > 100 µM
- GI50 [2]: 34.2 µM
- TGI [2]: > 100 µM
- GI50 [3]: 19.4 µM
- TGI [3]: 65.4 µM
- GI50 [4]: 84.6 µM
- TGI [4]: > 100 µM
- GI50 [5]: 33.9 µM
- TGI [5]: > 100 µM
- GI50 [6]: 28.7 µM
- TGI [6]: > 100 µM
- GI50 [7]: 18.9 µM
- TGI [7]: > 100 µM
- GI50 [8]: 24.6 µM
- TGI [8]: 97.5 µM
- GI50 [10]: 31.4 µM
- TGI [10]: > 100 µM

Compound: CC1=C(/C=C/C(=O)O)C(C)(C)CCC1
- TGI [1]: > 100 µM
- TGI [2]: > 100 µM
- TGI [3]: > 100 µM
- TGI [4]: > 100 µM
- TGI [5]: > 100 µM
- TGI [6]: > 100 µM
- TGI [7]: > 100 µM
- TGI [8]: > 100 µM
- TGI [9]: > 100 µM
- TGI [10]: > 100 µM

Compound: Cn1cc(C2=C(c3cn(CCO)c4ccccc34)C(=O)NC2=O)c2ccccc21
- GI50 [2]: 3.2 µM
- TGI [2]: 14.6 µM
- GI50 [3]: 3.36 µM
- TGI [3]: > 16.6 µM
- GI50 [4]: 4 µM
- TGI [4]: > 25 µM
- GI50 [5]: 5.01 µM
- TGI [5]: > 25 µM
- GI50 [6]: 1.12 µM
- TGI [6]: 6.36 µM
- GI50 [7]: 5.6 µM
- TGI [7]: > 22 µM
- GI50 [8]: 3.79 µM
- TGI [8]: > 24.1 µM
- GI50 [9]: 4.58 µM
- TGI [9]: 15.5 µM
- GI50 [10]: 1.24 µM
- TGI [10]: > 25 µM
